Data as given in ChEMBL document CHEMBL1944563, “Separation of Betti Reaction Product Enantiomers: Absolute Configuration and Inhibition of Botulinum Neurotoxin A” (ACS Med Chem Lett, 2011).

How the values were obtained:
[1] = biological target: Botulinum neurotoxin type A (Clostridium botulinum (strain Hall / ATCC 3502 / NCTC 13319 / Type A)) (UniProt P0DPI1); assay: Inhibition of Clostridium botulinum Hall BoNT/A-induced toxicity in mouse Neuro2a cells assessed as inhibition of SNAP25 substrate cleavage at 15 uM by Western blotting; format: cell-based; conditions: Clostridium botulinum A str. Hall
[2] = biological target: Botulinum neurotoxin type A (Clostridium botulinum (strain Hall / ATCC 3502 / NCTC 13319 / Type A)) (UniProt P0DPI1); assay: Inhibition of Clostridium botulinum Hall BoNT/A-induced toxicity in mouse Neuro2a cells assessed as inhibition of SNAP25 substrate cleavage at 60 uM by Western blotting; format: cell-based; conditions: Clostridium botulinum A str. Hall
[3] = biological target: Botulinum neurotoxin type A (Clostridium botulinum (strain Hall / ATCC 3502 / NCTC 13319 / Type A)) (UniProt P0DPI1); assay: Inhibition of Clostridium botulinum Hall BoNT/A-induced paralysis in mouse phrenic nerve hemidiaphragm assessed as delay in paralytic half-time at 2 uM relative to control; conditions: Clostridium botulinum A str. Hall
[4] = biological target: Botulinum neurotoxin type A (Clostridium botulinum (strain Hall / ATCC 3502 / NCTC 13319 / Type A)) (UniProt P0DPI1); assay: Inhibition of Clostridium botulinum Hall BoNT/A-induced toxicity in mouse Neuro2a cells assessed as inhibition of SNAP25 substrate cleavage at 30 uM by Western blotting; format: cell-based; conditions: Clostridium botulinum A str. Hall
[5] = biological target: Botulinum neurotoxin type A (Clostridium botulinum (strain Hall / ATCC 3502 / NCTC 13319 / Type A)) (UniProt P0DPI1); assay: Inhibition of Clostridium botulinum Hall BoNT/A light chain using SNAP-25 (187 to 203) as substrate at 20 uM by HPLC analysis; conditions: Clostridium botulinum A str. Hall
[6] = biological target: Botulinum neurotoxin type A (Clostridium botulinum (strain Hall / ATCC 3502 / NCTC 13319 / Type A)) (UniProt P0DPI1); assay: Inhibition of Clostridium botulinum Hall BoNT/A light chain using SNAP-25 (187 to 203) as substrate at 5 uM by HPLC analysis; conditions: Clostridium botulinum A str. Hall
[7] = biological target: Botulinum neurotoxin type A (Clostridium botulinum (strain Hall / ATCC 3502 / NCTC 13319 / Type A), UniProt P0DPI1); assay: Inhibition of Clostridium botulinum Hall BoNT/A light chain using SNAP-25 (187 to 203) as substrate by HPLC analysis; set-up: species or system Clostridium botulinum A str. Hall
[8] = biological target: Botulinum neurotoxin type A (Clostridium botulinum (strain Hall / ATCC 3502 / NCTC 13319 / Type A)) (UniProt P0DPI1); assay: Inhibition of Clostridium botulinum Hall BoNT/A-induced toxicity in mouse Neuro2a cells assessed as inhibition of SNAP25 substrate cleavage at 45 uM by Western blotting; format: cell-based; conditions: Clostridium botulinum A str. Hall
[9] = biological target: Botulinum neurotoxin type A (Clostridium botulinum (strain Hall / ATCC 3502 / NCTC 13319 / Type A)) (UniProt P0DPI1); assay: Inhibition of Clostridium botulinum Hall BoNT/A-induced paralysis in mouse phrenic nerve hemidiaphragm assessed as time required for loss of 50% twitch tension at 2 uM; conditions: Clostridium botulinum A str. Hall

Botulinum neurotoxin type A, sequence (P0DPI1 2-448 limits assumed): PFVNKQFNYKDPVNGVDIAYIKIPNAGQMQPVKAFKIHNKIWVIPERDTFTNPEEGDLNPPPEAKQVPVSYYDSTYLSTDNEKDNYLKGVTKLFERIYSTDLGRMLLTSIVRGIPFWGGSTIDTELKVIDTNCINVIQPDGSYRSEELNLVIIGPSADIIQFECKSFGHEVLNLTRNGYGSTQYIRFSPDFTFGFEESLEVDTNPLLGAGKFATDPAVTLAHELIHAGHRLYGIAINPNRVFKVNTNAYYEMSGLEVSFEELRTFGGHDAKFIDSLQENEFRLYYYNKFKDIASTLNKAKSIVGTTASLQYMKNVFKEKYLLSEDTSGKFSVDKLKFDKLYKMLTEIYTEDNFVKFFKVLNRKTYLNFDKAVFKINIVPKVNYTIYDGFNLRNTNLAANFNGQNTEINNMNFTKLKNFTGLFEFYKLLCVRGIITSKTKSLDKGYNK
Botulinum neurotoxin type A (Clostridium botulinum (strain Hall / ATCC 3502 / NCTC 13319 / Type A)), sequence (P0DPI1 2-448 limits assumed): as above

SMILES	inhibition [1]	inhibition [2]	fold change (FC) [3]	inhibition [4]	inhibition [5]	inhibition [6]	IC50 [7]	inhibition [8]	TIME [9]
Oc1c([C@H](Nc2ccccn2)c2ccccc2)cc(Cl)c2cccnc12	56%	96%	3	89%	94%	90%	1100 nM	94%	3.18 h
Oc1c([C@@H](Nc2ccccn2)c2ccccc2)cc(Cl)c2cccnc12	54%	96%	3	69%	91%	90%	1000 nM	93%	3.13 h
Oc1c(C(Nc2ccccn2)c2ccccc2)cc(Cl)c2cccnc12 (racemic)	41%	91%		74%	92%	88%	1500 nM	90%	
